Tests used:
Assay type in all cases: functional, cell-based
MDA-MB-231 = test: Cytotoxicity against human MDA-MB-231 cells assessed as inhibition of cell proliferation measured after 72 hrs by CellTiter 96 AQueous One Solution Cell Proliferation assay; settings: MDA-MB-231, 72 h
OVCAR-3 = test: Cytotoxicity against human OVCAR-3 cells assessed as inhibition of cell proliferation measured after 72 hrs by CellTiter 96 AQueous One Solution Cell Proliferation assay; settings: OVCAR-3, 72 h
MDA-MB-435 = test: Cytotoxicity against human MDA-MB-435 cells assessed as inhibition of cell proliferation measured after 72 hrs by CellTiter 96 AQueous One Solution Cell Proliferation assay; settings: MDA-MB-435, 72 h

**Q.** Which IC50 (MDA-MB-231) does the source give for `CN1C(=O)[C@]23SS[C@@]1(C)C(=O)N2[C@H]1Nc2ccccc2[C@@]1([C@@]12c4ccccc4N[C@@H]1N1C(=O)[C@]4(C)SS[C@]1(C(=O)N4C)[C@H]2O)[C@@H]3O` here?
**A.** 23 nM

**Q.** And the IC50 (OVCAR-3)?
**A.** 36 nM

**Q.** What about the IC50 (MDA-MB-435) of the same molecule?
**A.** 18 nM

**Q.** How did the IC50 (MDA-MB-231) turn out when `CC[C@@]12SS[C@]3(C(=O)N1C)[C@@H](O)[C@]1([C@@]45c6ccccc6N[C@@H]4N4C(=O)[C@]6(CC)SS[C@]4(C(=O)N6C)[C@H]5OC(=O)C(C)(C)C)c4ccccc4N[C@@H]1N3C2=O` was run?
**A.** 20 nM

**Q.** What about the IC50 (OVCAR-3) of the same molecule?
**A.** 72 nM

**Q.** And the IC50 (MDA-MB-435)?
**A.** 21 nM

**Q.** Which IC50 (MDA-MB-231) does the source give for `CCCC(=O)O[C@H]1[C@]2([C@@]34c5ccccc5N[C@@H]3N3C(=O)[C@]5(CC)SS[C@]3(C(=O)N5C)[C@H]4O)c3ccccc3N[C@@H]2N2C(=O)[C@]3(CC)SS[C@]12C(=O)N3C` here?
**A.** 17 nM

**Q.** What about the IC50 (OVCAR-3) of the same molecule?
**A.** 25 nM

**Q.** And the IC50 (MDA-MB-435)?
**A.** 19 nM

**Q.** How did the IC50 (MDA-MB-231) turn out when `CN1C(=O)[C@]23SS[C@@]1(C)C(=O)N2[C@H]1Nc2ccccc2[C@@]1([C@@]12c4ccccc4N[C@@H]1N1C(=O)[C@]4(C)SS[C@]1(C(=O)N4C)[C@H]2OC(=O)CCC(=O)O)[C@@H]3O` was run?
**A.** 12 nM

**Q.** And the IC50 (OVCAR-3)?
**A.** 33 nM

**Q.** What about the IC50 (MDA-MB-435) of the same molecule?
**A.** 9 nM

**Q.** Which IC50 (MDA-MB-231) does the source give for `CCOC(=O)O[C@H]1[C@]2([C@@]34c5ccccc5N[C@@H]3N3C(=O)[C@]5(CC)SS[C@]3(C(=O)N5C)[C@H]4O)c3ccccc3N[C@@H]2N2C(=O)[C@]3(CC)SS[C@]12C(=O)N3C` here?
**A.** 7 nM

**Q.** And the IC50 (OVCAR-3)?
**A.** 137 nM

**Q.** And the IC50 (MDA-MB-435)?
**A.** 11 nM

**Q.** How did the IC50 (MDA-MB-231) turn out when `CC[C@@]12SS[C@]3(C(=O)N1C)[C@@H](O)[C@]1([C@@]45c6ccccc6N[C@@H]4N4C(=O)[C@]6(CC)SS[C@]4(C(=O)N6C)[C@H]5OC(=O)NC)c4ccccc4N[C@@H]1N3C2=O` was run?
**A.** 21 nM

**Q.** And the IC50 (OVCAR-3)?
**A.** 68 nM

**Q.** What about the IC50 (MDA-MB-435) of the same molecule?
**A.** 22 nM

**Q.** For `CC[C@@]12SS[C@]3(C(=O)N1C)[C@@H](O)[C@]1([C@@]45c6ccccc6N[C@@H]4N4C(=O)[C@]6(CC)SS[C@]4(C(=O)N6C)[C@H]5OC(C)=O)c4ccccc4N[C@@H]1N3C2=O`, which IC50 (MDA-MB-231) is on record?
**A.** 21 nM

**Q.** What about the IC50 (OVCAR-3) of the same molecule?
**A.** 96 nM

**Q.** And the IC50 (MDA-MB-435)?
**A.** 41 nM

**Q.** Which IC50 (MDA-MB-231) does the source give for `CC[C@@]12SS[C@]3(C(=O)N1C)[C@@H](O)[C@]1([C@@]45c6ccccc6N[C@@H]4N4C(=O)[C@]6(CC)SS[C@]4(C(=O)N6C)[C@H]5OC(=O)CCC(=O)O)c4ccccc4N[C@@H]1N3C2=O` here?
**A.** 13 nM

**Q.** And the IC50 (OVCAR-3)?
**A.** 133 nM

**Q.** What about the IC50 (MDA-MB-435) of the same molecule?
**A.** 21 nM

**Q.** With `CC[C@@]12SS[C@]3(C(=O)N1C)[C@@H](O)[C@]1([C@@]45c6ccccc6N[C@@H]4N4C(=O)[C@]6(CC)SS[C@]4(C(=O)N6C)[C@H]5O)c4ccccc4N[C@@H]1N3C2=O` as the molecule, how does the IC50 (MDA-MB-231) read?
**A.** 31 nM

**Q.** What about the IC50 (OVCAR-3) of the same molecule?
**A.** 229 nM

**Q.** What about the IC50 (MDA-MB-435) of the same molecule?
**A.** 44 nM

**Q.** Which IC50 (MDA-MB-231) does the source give for `CC[C@@]12SS[C@]3(C(=O)N1C)[C@@H](O)[C@]1([C@@]45c6ccccc6N[C@@H]4N4C(=O)[C@]6(CC)SS[C@]4(C(=O)N6C)[C@H]5OC(=O)N(C)C)c4ccccc4N[C@@H]1N3C2=O` here?
**A.** 12 nM

**Q.** And the IC50 (OVCAR-3)?
**A.** 19 nM

**Q.** And the IC50 (MDA-MB-435)?
**A.** 9 nM

**Q.** With `CC(=O)O[C@H]1C(=O)[C@@]2(C)[C@H]([C@H](OC(=O)c3ccccc3)[C@]3(O)C[C@H](OC(=O)[C@H](O)[C@@H](NC(=O)c4ccccc4)c4ccccc4)C(C)=C1C3(C)C)[C@]1(OC(C)=O)CO[C@@H]1C[C@@H]2O` [PACLITAXEL] as the molecule, how does the IC50 (MDA-MB-231) read?
**A.** 0.6 nM

**Q.** And the IC50 (OVCAR-3)?
**A.** 1.8 nM

**Q.** And the IC50 (MDA-MB-435)?
**A.** 0.3 nM

**Q.** For `CC[C@@]12SS[C@]3(C(=O)N1C)[C@@H](O)[C@]1([C@@]45c6ccccc6N[C@@H]4N4C(=O)[C@]6(CC)SS[C@]4(C(=O)N6C)[C@H]5OS(=O)(=O)c4ccc(F)cc4)c4ccccc4N[C@@H]1N3C2=O`, which IC50 (MDA-MB-231) is on record?
**A.** 49 nM

**Q.** And the IC50 (OVCAR-3)?
**A.** 79 nM

**Q.** And the IC50 (MDA-MB-435)?
**A.** 31 nM

**Q.** For `CC[C@@]12SS[C@]3(C(=O)N1C)[C@@H](O)[C@]1([C@@]45c6ccccc6N[C@@H]4N4C(=O)[C@]6(CC)SS[C@]4(C(=O)N6C)[C@H]5OC(=O)C4CC4)c4ccccc4N[C@@H]1N3C2=O`, which IC50 (MDA-MB-231) is on record?
**A.** 12 nM

**Q.** What about the IC50 (OVCAR-3) of the same molecule?
**A.** 105 nM

**Q.** And the IC50 (MDA-MB-435)?
**A.** 24 nM

Source: ChEMBL document CHEMBL4706731, “Semisynthetic Derivatives of the Verticillin Class of Natural Products through Acylation of the C11 Hydroxy Group” (ACS Med Chem Lett, 2021)
